In patent US20240285571A1, “METHODS OF TREATING BONE INFECTIONS” (MICROBION CORPORATION, priority 2020, published 2024):

How the values were obtained:
Assay in all cases: MIC of baseline clinical isolates (Example 8)
Type in all cases: cell-based
S. aureus (MRSA, MSSA) = conditions: Staphylococcus aureus, MRSA baseline isolates (N′ = 4), central laboratory, mITT
Protocol: (§1) Microbiology was assessed on Day 1 and at the time of any subsequent surgical procedure at the index site. Samples were collected from the infected bone site or involved tissue adjacent to any implant(s), swabs of the deep infection site, and the superficial tissue/wound closure/sinus tract site. […] Parallel sets of samples were analyzed by the local clinical site laboratory to guide patient antibiotic treatment.

Staphylococcus pasteuri = Staphylococcus pasteuri baseline isolates (N′ = 1), central laboratory, mITT
Protocol: as §1

[1] = system: Staphylococcus haemolyticus; conditions: Staphylococcus haemolyticus baseline isolates (N′ = 1), central laboratory, mITT
Protocol: as §1

S. epidermidis = conditions: Staphylococcus epidermidis baseline isolates (N′ = 5), central laboratory, mITT
Protocol: as §1

Staphylococcus hominis = Staphylococcus hominis baseline isolates (N′ = 1), central laboratory, mITT
Protocol: as §1

[2] = system: Staphylococcus lugdunensis; conditions: Staphylococcus lugdunensis baseline isolates (N′ = 3), central laboratory, mITT
Protocol: as §1

Staphylococcus arlettae = Staphylococcus arlettae baseline isolates (N′ = 1), central laboratory, mITT
Protocol: as §1

Corynebacterium jeikeium = Corynebacterium jeikeium baseline isolates (N′ = 2), central laboratory, mITT
Protocol: (§2) Microbiology was assessed on Day 1 and at the time of any subsequent surgical procedure at the index site. Samples were collected from the infected bone site or involved tissue adjacent to any implant(s), swabs of the deep infection site, and the superficial tissue/wound closure/sinus tract site. Isolation and identification of aerobic and anerobic bacteria was conducted at a central microbiology laboratory (IHMA, Schaumburg, IL) and susceptibility of the isolates to MBN-101 (BisEDT) and comparator agents was performed per Clinical and Laboratory Standards Institute (CLSI). Parallel sets of samples were analyzed by the local clinical site laboratory to guide patient antibiotic treatment.

Streptococcus oralis = Streptococcus oralis baseline isolates (N′ = 1), central laboratory, mITT
Protocol: as §2

Dermabacter hominis = Dermabacter hominis baseline isolates (N′ = 1), central laboratory, mITT
Protocol: as §2

[3] = system: Corynebacterium amycolatum; conditions: Corynebacterium amycolatum baseline isolates (N′ = 1), central laboratory, mITT
Protocol: as §2

[4] = system: Corynebacterium resistens; conditions: Corynebacterium resistens baseline isolates (N′ = 1), central laboratory, mITT
Protocol: as §2

[5] = system: non-speciated Corynebacterium; conditions: Corynebacterium non-speciated baseline isolates (N′ = 2), central laboratory, mITT
Protocol: as §2

COc1cc(Cc2cnc(N)nc2N)cc(OC)c1OC.Cc1cc(NS(=O)(=O)c2ccc(N)cc2)no1 [SXT]
Mean MIC (S. aureus (MRSA, MSSA)): 2.09 µg/mL
n (% resistant) (S. aureus (MRSA, MSSA)): 1 (25.0) n (%)
Mean MIC (Staphylococcus pasteuri): 0.12 µg/mL
Mean MIC [1]: 0.25 µg/mL
n (% resistant) [1]: 10.0 n (%)
Mean MIC (S. epidermidis): 4.42 µg/mL
n (% resistant) (S. epidermidis): 3 (60.0) n (%)
Mean MIC (Staphylococcus hominis): 8.00 µg/mL
Mean MIC [2]: 0.16 µg/mL
n (% resistant) [2]: 0 (0.0) n (%)
Mean MIC (Staphylococcus arlettae): 8.00 µg/mL
n (% resistant) (Staphylococcus arlettae): 1 (100.0) n (%)
Mean MIC (Corynebacterium jeikeium): 2.00 µg/mL
n (% resistant) (Corynebacterium jeikeium): 0 (0.0) n (%)
Mean MIC (Streptococcus oralis): 0.12 µg/mL
n (% resistant) (Streptococcus oralis): 0 (0.0) n (%)
Mean MIC (Dermabacter hominis): 4.00 µg/mL
Mean MIC [3]: 0.25 µg/mL
n (% resistant) [3]: 0 (0.0) n (%)
Mean MIC [4]: 2.00 µg/mL
n (% resistant) [4]: 0 (0.0) n (%)
Mean MIC [5]: 2.25 µg/mL

CC1(C)S[C@@H]2[C@H](NC(=O)[C@H](N)c3ccccc3)C(=O)N2[C@H]1C(=O)O [AMP]
Mean MIC (S. aureus (MRSA, MSSA)): 28.00 µg/mL
n (% resistant) (S. aureus (MRSA, MSSA)): 0 (0.0) n (%)
Mean MIC (Staphylococcus pasteuri): 0.25 µg/mL
n (% resistant) (Staphylococcus pasteuri): 0 (0.0) n (%)
Mean MIC [1]: 16.00 µg/mL
n (% resistant) [1]: 0 (0.0) n (%)
Mean MIC (S. epidermidis): 2.60 µg/mL
n (% resistant) (S. epidermidis): 0 (0.0) n (%)
Mean MIC (Staphylococcus hominis): 4.00 µg/mL
n (% resistant) (Staphylococcus hominis): 0 (0.0) n (%)
Mean MIC [2]: 7.33 µg/mL
n (% resistant) [2]: 0 (0.0) n (%)
Mean MIC (Staphylococcus arlettae): 0.50 µg/mL
n (% resistant) (Staphylococcus arlettae): 0 (0.0) n (%)

CC1(C)S[C@@H]2[C@H](NC(=O)Cc3ccccc3)C(=O)N2[C@H]1C(=O)O [PEN]
Mean MIC (Corynebacterium jeikeium): 4.00 µg/mL
n (% resistant) (Corynebacterium jeikeium): 2 (100.0) n (%)
Mean MIC (Streptococcus oralis): 0.06 µg/mL
n (% resistant) (Streptococcus oralis): 0 (0.0) n (%)
Mean MIC (Dermabacter hominis): 0.50 µg/mL
n (% resistant) (Dermabacter hominis): 0 (0.0) n (%)
Mean MIC [3]: 1.00 µg/mL
n (% resistant) [3]: 0 (0.0) n (%)
Mean MIC [4]: 4.00 µg/mL
n (% resistant) [4]: 1 (100.0) n (%)
Mean MIC [5]: 2.06 µg/mL

CC1(C)S[C@@H]2[C@H](NC(=O)[C@H](N)c3ccc(O)cc3)C(=O)N2[C@H]1C(=O)O.O=C(O)[C@H]1/C(=C/CO)O[C@@H]2CC(=O)N21 [AMC]
Mean MIC (S. aureus (MRSA, MSSA)): 8.00 µg/mL
n (% resistant) (S. aureus (MRSA, MSSA)): 0 (0.0) n (%)
Mean MIC (Staphylococcus pasteuri): 0.12 µg/mL
n (% resistant) (Staphylococcus pasteuri): 0 (0.0) n (%)
Mean MIC [1]: 2.00 µg/mL
n (% resistant) [1]: 0 (0.0) n (%)
Mean MIC (S. epidermidis): 1.05 µg/mL
n (% resistant) (S. epidermidis): 0 (0.0) n (%)
Mean MIC (Staphylococcus hominis): 2.00 µg/mL
n (% resistant) (Staphylococcus hominis): 0 (0.0) n (%)
Mean MIC [2]: 3.67 µg/mL
n (% resistant) [2]: 0 (0.0) n (%)
Mean MIC (Staphylococcus arlettae): 0.25 µg/mL
n (% resistant) (Staphylococcus arlettae): 0 (0.0) n (%)
Mean MIC (Corynebacterium jeikeium): 3.00 µg/mL
n (% resistant) (Corynebacterium jeikeium): 0 (0.0) n (%)
Mean MIC (Streptococcus oralis): 0.06 µg/mL
n (% resistant) (Streptococcus oralis): 0 (0.0) n (%)
Mean MIC (Dermabacter hominis): 0.50 µg/mL
n (% resistant) (Dermabacter hominis): 0 (0.0) n (%)
Mean MIC [3]: 1.00 µg/mL
n (% resistant) [3]: 0 (0.0) n (%)
Mean MIC [4]: 8.00 µg/mL
n (% resistant) [4]: 0 (0.0) n (%)
Mean MIC [5]: 4.03 µg/mL
n (% resistant) [5]: 0 (0.0) n (%)

CC[C@H]1OC(=O)[C@H](C)[C@@H](O[C@H]2C[C@@](C)(OC)[C@@H](O)[C@H](C)O2)[C@H](C)[C@@H](O[C@@H]2O[C@H](C)C[C@H](N(C)C)[C@H]2O)[C@](C)(O)C[C@@H](C)C(=O)[C@H](C)[C@@H](O)[C@]1(C)O [ERY]
Mean MIC (Corynebacterium jeikeium): 2.25 µg/mL
n (% resistant) (Corynebacterium jeikeium): 1 (50.0) n (%)
Mean MIC (Streptococcus oralis): 1.00 µg/mL
n (% resistant) (Streptococcus oralis): 1 (100.0) n (%)
Mean MIC (Dermabacter hominis): 2.00 µg/mL
n (% resistant) (Dermabacter hominis): 1 (100.0) n (%)
Mean MIC [3]: 4.00 µg/mL
n (% resistant) [3]: 1 (100.0) n (%)
Mean MIC [4]: 0.02 µg/mL
n (% resistant) [4]: 0 (0.0) n (%)
Mean MIC [5]: 2.02 µg/mL
n (% resistant) [5]: 1 (50.0) n (%)

CN(C)c1ccc(O)c2c1C[C@H]1C[C@H]3[C@H](N(C)C)C(O)=C(C(N)=O)C(=O)[C@@]3(O)C(O)=C1C2=O [MIN]
Mean MIC (S. aureus (MRSA, MSSA)): 0.11 µg/mL
n (% resistant) (S. aureus (MRSA, MSSA)): 0 (0.0) n (%)
Mean MIC (Staphylococcus pasteuri): 0.06 µg/mL
n (% resistant) (Staphylococcus pasteuri): 0 (0.0) n (%)
Mean MIC [1]: 0.12 µg/mL
n (% resistant) [1]: 0 (0.0) n (%)
Mean MIC (S. epidermidis): 0.18 µg/mL
n (% resistant) (S. epidermidis): 0 (0.0) n (%)
Mean MIC (Staphylococcus hominis): 0.12 µg/mL
n (% resistant) (Staphylococcus hominis): 0 (0.0) n (%)
Mean MIC [2]: 0.05 µg/mL
n (% resistant) [2]: 0 (0 0) n (%)
Mean MIC (Staphylococcus arlettae): 0.25 µg/mL
n (% resistant) (Staphylococcus arlettae): 0 (0.0) n (%)

CO/N=C(\C(=O)N[C@@H]1C(=O)N2C(C(=O)O)=C(CSc3nc(=O)c(O)nn3C)CS[C@H]12)c1csc(N)n1 [CRO]
Mean MIC (Corynebacterium jeikeium): 4.00 µg/mL
n (% resistant) (Corynebacterium jeikeium): 2 (100.0) n (%)
Mean MIC (Streptococcus oralis): 0.06 µg/mL
n (% resistant) (Streptococcus oralis): 0 (0.0) n (%)
Mean MIC (Dermabacter hominis): 0.50 µg/mL
n (% resistant) (Dermabacter hominis): 0 (0.0) n (%)
Mean MIC [3]: 1.00 µg/mL
n (% resistant) [3]: 0 (0.0) n (%)
Mean MIC [4]: 4.00 µg/mL
n (% resistant) [4]: 1 (100.0) n (%)
Mean MIC [5]: 0.75 µg/mL
n (% resistant) [5]: 0 (0.0) n (%)

Cc1onc(-c2ccccc2)c1C(=O)N[C@@H]1C(=O)N2[C@@H]1SC(C)(C)[C@@H]2C(=O)O [OXA]
n (% resistant) (S. aureus (MRSA, MSSA)): 4 (100.0) n (%)
Mean MIC (Staphylococcus pasteuri): 0.25 µg/mL
n (% resistant) (Staphylococcus pasteuri): 0 (0.0) n (%)
Mean MIC [1]: 4.00 µg/mL
n (% resistant) [1]: 1 (100.0) n (%)
Mean MIC (S. epidermidis): 125 µg/mL
n (% resistant) (S. epidermidis): 2 (40.0) n (%)
Mean MIC (Staphylococcus hominis): 4.00 µg/mL
n (% resistant) (Staphylococcus hominis): 1 (100.0) n (%)
Mean MIC [2]: 2.83 µg/mL
n (% resistant) [2]: 2. (66.7) n (%)
Mean MIC (Staphylococcus arlettae): 2.00 µg/mL
n (% resistant) (Staphylococcus arlettae): 1 (100.0) n (%)
